ChEMBL document CHEMBL1201862, “PubChem BioAssay data set” (2004)
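Step 1: Grow cells in 96-well plates. Step 2: Expose to compound for 48 hours at 5 concentrations. Step 3: Interpolate endpoints linearly; if unreached, use highest concentration. GI50 = concentration required for 50% inhibition of growth.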 The source made the active and inactive calls. No stated cut-off is given here; in the data, active = GI50 up to about 1.1 µM and inactive = higher.

Assays:
Test in all cases: NCI tumour cell line growth inhibition, 48 h
SW-620 = test system: SW-620
MOLT-4 = test system: MOLT-4
Malme-3M = test system: Malme-3M
OVCAR-3 = test system: OVCAR-3
BT-549 = test system: BT-549
NCI-H460 = test system: NCI-H460
A498 = test system: A498
RPMI-8226 = test system: RPMI-8226
NCI-H23 = test system: NCI-H23
DU-145 = test system: DU-145
HCT-116 = test system: HCT-116
A549 = test system: A549
HCT-15 = test system: HCT-15
NCI/ADR-RES = test system: NCI/ADR-RES
U-251 = test system: U-251
OVCAR-5 = test system: OVCAR-5
MCF7 = test system: MCF7
UACC-257 = test system: UACC-257
NCI-H226 = test system: NCI-H226
IGROV-1 = test system: IGROV-1
OVCAR-8 = test system: OVCAR-8
SF-268 = test system: SF-268
SNB-19 = test system: SNB-19
HL-60 = test system: HL-60
SNB-75 = test system: SNB-75
PC-3 = test system: PC-3
786-0 = test system: 786-0
CCRF-CEM = test system: CCRF-CEM
HT-29 = test system: HT-29
M14 = test system: M14
COLO 205 = test system: COLO 205
HOP-62 = test system: HOP-62
SK-MEL-5 = test system: SK-MEL-5
OVCAR-4 = test system: OVCAR-4
ACHN = test system: ACHN
SK-OV-3 = test system: SK-OV-3
RXF 393 = test system: RXF 393
MDA-N = test system: MDA-N
SK-MEL-28 = test system: SK-MEL-28
UO-31 = test system: UO-31
UACC-62 = test system: UACC-62
Hs-578T = test system: Hs-578T
HOP-92 = test system: HOP-92
HCC 2998 = test system: HCC 2998
EKVX = test system: EKVX
SN12C = test system: SN12C
T47D = test system: T47D
K562 = test system: K562
SF-295 = test system: SF-295
LOX IMVI = test system: LOX IMVI
SR = test system: SR
KM12 = test system: KM12
MDA-MB-435 = test system: MDA-MB-435
CAKI-1 = test system: CAKI-1
MDA-MB-231 = test system: MDA-MB-231
NCI-H522 = test system: NCI-H522
TK-10 = test system: TK-10
SK-MEL-2 = test system: SK-MEL-2

SMILES: O=C(NCc1ccccc1)c1cc2ccccc2o/c1=N\c1cccc(C(F)(F)F)c1
- GI50 (SW-620): 43 µM (inactive)
- GI50 (MOLT-4): 23.4 µM (inactive)
- GI50 (Malme-3M): 48.1 µM (inactive)
- GI50 (OVCAR-3): 67.3 µM (inactive)
- GI50 (BT-549): > 100 µM (inactive)
- GI50 (NCI-H460): 41.2 µM (inactive)
- GI50 (A498): 85.1 µM (inactive)
- GI50 (RPMI-8226): 30.3 µM (inactive)
- GI50 (NCI-H23): 57.7 µM (inactive)
- GI50 (DU-145): > 100 µM (inactive)
- GI50 (HCT-116): 55.6 µM (inactive)
- GI50 (A549): 47.1 µM (inactive)
- GI50 (HCT-15): 36.9 µM
- GI50 (NCI/ADR-RES): 47.1 µM (inactive)
- GI50 (U-251): 71 µM (inactive)
- GI50 (OVCAR-5): > 100 µM (inactive)
- GI50 (MCF7): 42.5 µM (inactive)
- GI50 (UACC-257): 29.5 µM (inactive)
- GI50 (NCI-H226): 29.8 µM (inactive)
- GI50 (IGROV-1): 81.3 µM (inactive)
- GI50 (OVCAR-8): 56.1 µM (inactive)
- GI50 (SF-268): > 100 µM (inactive)
- GI50 (SNB-19): > 100 µM (inactive)
- GI50 (HL-60): 20.5 µM (inactive)
- GI50 (SNB-75): 74.8 µM (inactive)
- GI50 (PC-3): 44.3 µM (inactive)
- GI50 (786-0): 29.8 µM (inactive)
- GI50 (CCRF-CEM): 45.1 µM (inactive)
- GI50 (HT-29): 35.9 µM (inactive)
- GI50 (M14): 87.3 µM (inactive)
- GI50 (COLO 205): 29.3 µM (inactive)
- GI50 (HOP-62): 85.3 µM (inactive)
- GI50 (SK-MEL-5): 26.4 µM (inactive)
- GI50 (OVCAR-4): 69.7 µM (inactive)
- GI50 (ACHN): 46.3 µM (inactive)
- GI50 (SK-OV-3): > 100 µM (inactive)
- GI50 (RXF 393): 78 µM (inactive)
- GI50 (MDA-N): 54.8 µM (inactive)
- GI50 (SK-MEL-28): > 100 µM (inactive)
- GI50 (UO-31): 79.1 µM (inactive)
- GI50 (UACC-62): 52.2 µM (inactive)
- GI50 (Hs-578T): > 100 µM (inactive)
- GI50 (HOP-92): 75.2 µM (inactive)
- GI50 (HCC 2998): 21.2 µM (inactive)
- GI50 (EKVX): > 100 µM (inactive)
- GI50 (SN12C): 29.3 µM (inactive)
- GI50 (T47D): 28.1 µM (inactive)
- GI50 (K562): 36.5 µM (inactive)
- GI50 (SF-295): 51.3 µM (inactive)
- GI50 (LOX IMVI): 35.6 µM (inactive)
- GI50 (SR): 21.1 µM (inactive)
- GI50 (KM12): 48.6 µM (inactive)
- GI50 (MDA-MB-435): 46 µM (inactive)
- GI50 (CAKI-1): > 100 µM (inactive)
- GI50 (MDA-MB-231): 75.7 µM (inactive)
- GI50 (NCI-H522): 39 µM (inactive)
- GI50 (TK-10): 50.4 µM (inactive)
- GI50 (SK-MEL-2): 28.6 µM (inactive)
